Assay results from patent US10189840B2, “Substituted tricyclic heterocyclic compounds” (BRISTOL-MYERS SQUIBB COMPANY, priority 2015, dated 2019).

Target: TNFα (Homo sapiens (Human), UniProt P01375)
Test: TNF induced HEK-Blue assay
Type: cell-based
Conditions: TNFα 0.5 ng/ml; HEK-Blue-CD40L cells, NF-κB-driven secreted alkaline phosphatase reporter; 18 h
Experimental: Test compounds serially diluted in DMSO were plated in an assay plate (Labcyte, Cat. #LP-0200) at final concentrations ranging from 0.004 μM to 25 μM. TNFα (final concentration 0.5 ng/ml) or CD40L (final concentration 30 ng/ml) in assay buffer [DMEM, 4.5 g/l glucose (Gibco, Cat. 21063-029), 10% FBS (Sigma, F4135), 1% Penicillin-Streptomycin (Gibco, Cat. 15140-122), 1% Anti-Anti (Gibco, Cat. 15240-112) and 2 mM L-glutamine (Gibco, Cat. 25030-081)] was then added to the assay plate. After a 30 minute pre-incubation at 37° C. and 5% CO2, HEK-Blue-CD40L cells (InvivoGen, Cat. Code hkb-cd40) containing a NF-κB-driven secreted alkaline phosphatase reporter gene were seeded into the assay plate at a density of 20,000 cells per well. This plate was then incubated for 18 h at 37° C. and 5% CO2. Secreted alkaline phosphatase expression was measured using QUANTI-Blue (InvivoGen, Cat. Code rep-qb1) according to manufacturer's specifications and the assay plate was read on a PerkinElmer Envision at 620 nm.
Inhibition data for the test compound over a range of concentrations was plotted as percentage inhibition of the test compound (100%=maximum inhibition). IC50 values were determined after correcting for background [(sample read−mean of low control)/(mean of high control−mean of low control)] where by the low control is DMSO without stimulation and high control is DMSO with stimulation. The IC50 is defined as the concentration of test compound which produces 50% inhibition and was quantified using the 4 parameter logistic equation to fit the data.
Table 5 lists the IC50 values measured in the TNF induced HEK-Blue assay for Examples 1 to 40 of this invention.

Chain of TNFα (P01375 77-233): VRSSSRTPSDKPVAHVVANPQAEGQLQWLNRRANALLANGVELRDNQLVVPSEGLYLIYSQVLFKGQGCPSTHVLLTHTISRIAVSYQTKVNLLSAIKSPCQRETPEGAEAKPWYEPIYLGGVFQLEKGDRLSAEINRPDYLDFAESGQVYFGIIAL

IC50, < 1000 nM:
CC(C)(O)c1ccc(-c2ccc3nc4n(c3n2)C(c2c(F)cccc2C(F)(F)F)CC4O)cc1 (single isomer, unassigned) [Example 3 (e1), 8-(2-fluoro-6-(trifluoromethyl)phenyl)-2-(4-(2-hydroxypropan-2-yl)phenyl)-7,8-dihydro-6H-pyrrolo[2′,1′:2,3]imidazo[4,5-b]pyridin-6-ol]
Cc1ccc(C)c(C2CC(O)c3nc4ccc(-c5ccc(C(C)(C)O)cc5)nc4n32)c1 (centres unmarked) [Example 4 (DM), 8-(2,5-dimethylphenyl)-2-(4-(2-hydroxypropan-2-yl)phenyl)-7,8-dihydro-6H-pyrrolo[2′,1′:2,3]imidazo[4,5-b]pyridin-6-ol]
FC(F)Oc1ccccc1C1CC(F)c2nc3ccc(-c4cnc(N5CCOCC5)nc4)nc3n21 (centres unmarked) [Example 17 (DM), 4-(5-(8-(2-(difluoromethoxy)phenyl)-6-fluoro-7,8-dihydro-6H-pyrrolo[2′,1′:2,3]imidazo[4,5-b]pyridin-2-yl)pyrimidin-2-yl)morpholine]
CC(C)(O)c1ccc(-c2ccc3nc4n(c3n2)C(c2c(F)cccc2C(F)(F)F)CC4F)cc1 (centres unmarked) [Example 23 (e1), 2-(4-(6-fluoro-8-(2-fluoro-6-(trifluoromethyl)phenyl)-7,8-dihydro-6H-pyrrolo[2′,1′:2,3]imidazo[4,5-b]pyridin-2-yl)phenyl)propan-2-ol]
CC(C)(O)c1ccc(-c2ccc3nc4n(c3n2)C(c2ccccc2C2CC2)CC4O)cc1 (centres unmarked) [Example 9 (e1), 8-(2-cyclopropylphenyl)-2-(4-(2-hydroxypropan-2-yl)phenyl)-7,8-dihydro-6H-pyrrolo[2′,1′:2,3]imidazo[4,5-b]pyridin-6-ol]
Cc1ccc(C)c(C2CC(O)c3nc4ccc(-c5cnc(C(C)(C)O)nc5)nc4n32)c1 (centres unmarked) [Example 5 (DM), 8-(2,5-dimethylphenyl)-2-(2-(2-hydroxypropan-2-yl)pyrimidin-5-yl)-7,8-dihydro-6H-pyrrolo[2′,1′:2,3]imidazo[4,5-b]pyridin-6-ol]
CC(C)(O)c1ncc(-c2ccc3nc4n(c3n2)C(c2ccccc2OC(F)F)CC4F)cn1 (centres unmarked) [Example 16 (e4), 2-(5-(8-(2-(difluoromethoxy)phenyl)-6-fluoro-7,8-dihydro-6H-pyrrolo[2′,1′:2,3]imidazo[4,5-b]pyridin-2-yl)pyrimidin-2-yl)propan-2-ol]
CC(C)(O)c1ccc(-c2ccc3nc4n(c3n2)C(c2ccccc2C2CC2)CC4)cc1 (single isomer, unassigned) [Example 33 (e1), 2-(4-(8-(2-cyclopropylphenyl)-7,8-dihydro-6H-pyrrolo[2′,1′:2,3]imidazo[4,5-b]pyridin-2-yl)phenyl)propan-2-ol]
Cc1ccc(C)c([C@H]2CCc3nc4ccc(-c5cnc(C(C)(C)O)nc5)nc4n32)c1 [Example 36, (R)-2-(5-(8-(2,5-Dimethylphenyl)-7,8-dihydro-6H-pyrrolo[2′,1′:2,3]imidazo[4,5-b]pyridin-2-yl)pyrimidin-2-yl)propan-2-ol]
CC(C)(O)c1ccc(-c2ccc3nc4n(c3n2)C(c2c(F)cccc2C(F)(F)F)CC4O)cc1 (single isomer, unassigned) [Example 3 (e2), 8-(2-fluoro-6-(trifluoromethyl)phenyl)-2-(4-(2-hydroxypropan-2-yl)phenyl)-7,8-dihydro-6H-pyrrolo[2′,1′:2,3]imidazo[4,5-b]pyridin-6-ol]
CC(C)(O)c1ccc(-c2ccc3nc4n(c3n2)C(c2cc(F)ccc2C(F)(F)F)CC4F)cc1 (centres unmarked) [Example 24 (DM), 2-(4-(6-fluoro-8-(5-fluoro-2-(trifluoromethyl)phenyl)-7,8-dihydro-6H-yrrolo[2′,1′:2,3]imidazo[4,5-b]pyridin-2-yl)phenyl)propan-2-ol]
Cc1ccc(C)c(C2CC(F)c3nc4ccc(-c5cnc(C(C)(C)O)nc5)nc4n32)c1 (centres unmarked) [Example 20 (DM), 2-(5-(8-(2,5-dimethylphenyl)-6-fluoro-7,8-dihydro-6H-pyrrolo[2′,1′:2,3]imidazo[4,5-b]pyridin-2-yl)pyrimidin-2-yl)propan-2-ol]
COc1ccc(-c2ccc3nc4n(c3n2)C(c2ccccc2OC(F)F)CC4F)cn1 (single isomer, unassigned) [Example 18 (e1), 8-(2-(difluoromethoxy)phenyl)-6-fluoro-2-(6-methoxypyridin-3-yl)-7,8-dihydro-6H-pyrrolo[2′,1′:2,3]imidazo[4,5-b]pyridine]
CC(C)(O)c1ccc(-c2ccc3nc4n(c3n2)C(c2cc(F)ccc2C(F)(F)F)CC4F)cc1 (centres unmarked) [Example 24 (e4), 2-(4-(6-fluoro-8-(5-fluoro-2-(trifluoromethyl)phenyl)-7,8-dihydro-6H-yrrolo[2′,1′:2,3]imidazo[4,5-b]pyridin-2-yl)phenyl)propan-2-ol]
CC(C)(O)c1ccc(-c2ccc3nc4n(c3n2)C(c2ccccc2C2CC2)CC4F)cc1 (single isomer, unassigned) [Example 21 (e4), 2-(4-(8-(2-cyclopropylphenyl)-6-fluoro-7,8-dihydro-6H-pyrrolo[2′,1′:2,3]imidazo[4,5-b]pyridin-2-yl)phenyl)propan-2-ol]
CC(C)(O)c1ccc(-c2ccc3nc4n(c3n2)C(c2ccccc2OC(F)F)CC4F)cc1 (centres unmarked) [Example 15 (DM), 2-(4-(8-(2-(difluoromethoxy)phenyl)-6-fluoro-7,8-dihydro-6H-pyrrolo[2′,1′:2,3]imidazo[4,5-b]pyridin-2-yl)phenyl)propan-2-ol]
CC(C)(O)c1ccc(-c2ccc3nc4n(c3n2)C(c2ccccc2C2CC2)CC4F)cc1 (single isomer, unassigned) [Example 21 (e1), 2-(4-(8-(2-cyclopropylphenyl)-6-fluoro-7,8-dihydro-6H-pyrrolo[2′,1′:2,3]imidazo[4,5-b]pyridin-2-yl)phenyl)propan-2-ol]

IC50, 1000 to 10000 nM:
CC(C)(O)c1ccc(-c2ccc3nc4n(c3n2)C(c2ccccc2C(F)(F)F)CC4O)cc1 (single isomer, unassigned) [Example 1 (e4), 2-(4-(2-Hydroxypropan-2-yl)phenyl)-8-(2-(trifluoromethyl)phenyl)-7,8-dihydro-6H-pyrrolo[2′,1′:2,3]imidazo[4,5-b]pyridin-6-ol]
CC(C)(O)c1ccc(-c2ccc3nc4n(c3n2)C(c2ccccc2OC(F)(F)F)CC4F)cc1 (centres unmarked) [Example 22 (e3), 2-(4-(6-fluoro-8-(2-(trifluoromethoxy)phenyl)-7,8-dihydro-6H-pyrrolo[2′,1′:2,3]imidazo[4,5-b]pyridin-2-yl)phenyl)propan-2-ol]
CC(C)(O)c1ccc(-c2ccc3nc4n(c3n2)C(c2cc(F)ccc2C(F)(F)F)CC4O)cc1 (single isomer, unassigned) [Example 13 (e3), 8-(5-fluoro-2-(trifluoromethyl)phenyl)-2-(4-(2-hydroxypropan-2-yl)phenyl)-7,8-dihydro-6H-pyrrolo[2′,1′:2,3]imidazo[4,5-b]pyridin-6-ol]
CC(C)(O)c1ccc(-c2ccc3nc4n(c3n2)C(c2ccccc2C2CC2)CC4F)cc1 (centres unmarked) [Example 21 (e3), 2-(4-(8-(2-cyclopropylphenyl)-6-fluoro-7,8-dihydro-6H-pyrrolo[2′,1′:2,3]imidazo[4,5-b]pyridin-2-yl)phenyl)propan-2-ol]
CC(C)(O)c1ccc(-c2ccc3nc4n(c3n2)C(c2c(F)cccc2C(F)(F)F)CC4F)cc1 (single isomer, unassigned) [Example 23 (e2), 2-(4-(6-fluoro-8-(2-fluoro-6-(trifluoromethyl)phenyl)-7,8-dihydro-6H-pyrrolo[2′,1′:2,3]imidazo[4,5-b]pyridin-2-yl)phenyl)propan-2-ol]
Cn1cc(-c2ccc3nc4n(c3n2)C(c2ccccc2OC(F)F)CC4)cn1 (racemic) [Example 30 (rac), 8-(2-(difluoromethoxy)phenyl)-2-(1-methyl-1H-pyrazol-4-yl)-7,8-dihydro-6H-pyrrolo[2′,1′:2,3]imidazo[4,5-b]pyridine]
CC(C)(O)c1ccc(-c2ccc3nc4n(c3n2)C(c2cc(F)ccc2C(F)(F)F)CC4O)cc1 (single isomer, unassigned) [Example 13 (e4), 8-(5-fluoro-2-(trifluoromethyl)phenyl)-2-(4-(2-hydroxypropan-2-yl)phenyl)-7,8-dihydro-6H-pyrrolo[2′,1′:2,3]imidazo[4,5-b]pyridin-6-ol]
Cc1ccc(C)c([C@H]2CCc3nc4ccc(-c5cnn(C)c5)nc4n32)c1 [Example 40, (R)-8-(2,5-dimethylphenyl)-2-(1-methyl-1H-pyrazol-4-yl)-7,8-dihydro-6H-pyrrolo[2′,1′:2,3]imidazo[4,5-b]pyridine]
CC(C)(O)c1ccc(-c2ccc3nc4n(c3n2)C(c2cc(F)ccc2C(F)(F)F)CC4F)cc1 (single isomer, unassigned) [Example 24 (e2), 2-(4-(6-fluoro-8-(5-fluoro-2-(trifluoromethyl)phenyl)-7,8-dihydro-6H-yrrolo[2′,1′:2,3]imidazo[4,5-b]pyridin-2-yl)phenyl)propan-2-ol]
